Laboratory results: ChEMBL document CHEMBL1154505, “Nakijiquinones E and F, new dimeric sesquiterpenoid quinones from marine sponge” (Bioorg Med Chem, 2009)

Legend:
Type in all cases: functional, cell-based
P388 = test: Cytotoxicity against mouse P388 cells
L1210 = test: Cytotoxicity against mouse L1210 cells
KB = test: Cytotoxicity against human KB cells

Measured: IC50

C=C1CCC[C@H]2[C@](C)(Cc3cc(C(=O)OC)c(O)c(NC4=CC(=O)C(O)=C(C[C@]5(C)[C@@H](C)CC[C@]6(C)C(C)=CCC[C@@H]56)C4=O)c3O)[C@@H](C)CC[C@]12C [NAKIJIQUINONE E]
> 10 µg/mL: all assays above

COC(=O)c1cc(C[C@]2(C)[C@@H](C)CC[C@]3(C)C(C)=CCC[C@@H]23)c(O)c(NC2=CC(=O)C(O)=C(C[C@]3(C)[C@@H](C)CC[C@]4(C)C(C)=CCC[C@@H]34)C2=O)c1O [NAKIJIQUINONE F]
> 10 µg/mL: all assays above
